Two molecules from patent US12059413B2, “Methods of inhibiting viruses using compositions targeting TSG101-ubiquitin interaction” (The Research Foundation for the State University of New York, priority 2016, dated 2024) can be followed below.

One data set addresses T1, Tsg101 (Homo sapiens, UniProt Q99816).
T1 sequence (Q99816 2-145 limits assumed): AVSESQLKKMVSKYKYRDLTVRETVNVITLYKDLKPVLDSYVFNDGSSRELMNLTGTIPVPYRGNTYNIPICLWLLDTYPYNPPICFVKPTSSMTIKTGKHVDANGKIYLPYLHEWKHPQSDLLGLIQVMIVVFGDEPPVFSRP
Briefly: NWU screening / in vitro binding assay. Particulars: Esomeprazole and tenatoprazole compared. The text has this: Pantoprazole, Lansoprazole/Dexlansoprazole (dexlansoprazole is the active enantiomer of the racemic lansoprazole), and Rabeprazole were in the NWU screen but were not considered hits.

For the next data set, the system named is HIV-1 NL4-3 P7L. As to the kind of experiment: Electron microscopy of budding morphologies, WT- or P7L-NL4-3. Particulars: 50 μM N16. It counts as cell-based. On the procedure: FIG. 15A-D. N16 inhibits HIV-1 NL4-3 and Gag VLP production. A) Effect on virus production. Virus particles from N16-treated 293T cells transfected with pNL4-3 as determined by ELISA assay. Top, The compound was added 6 hr prior to DNA transfection and tissue culture media was harvested 24 hr later. Bottom, The compound was added at the indicated concentration 24 hr after DNA transfection and tissue culture media was harvested 24 hr later. Assay values were normalized to that of the DMSO carrier control. B) Effect on virus infectivity. Infectious viral particles per ng p24 as determined by MAGI assay. C) Left, Electron microscopy of particles at cell surface at 24 hr post-N16 addition; Right, Quantitative analysis of budding morphologies. Cells expressing WT- or P7L-NL4-3 were exposed to DMSO carrier or 50 μM N16. Arrows indicate emerging ‘Early’ buds. D) Effects on Gag VLP production. Top, Western blot analysis. Cells treated at the indicated concentration were transfected with DNA encoding Gag-HA. […] Bottom, Quantitative analysis. […]
Electron microscopy was used to identify the event arrested by N16 treatment. […] Treatment of P7L with N16 blocked the residual particle release that the mutation permits (mediated by Alix, an ESCRT adaptor, Fujii, K. et al. (2009)) and shifted the predominant form detected from ‘Tethered’ to ‘Early’.

A further data set in a line: Plasma level in humans. It counts as in vivo, human. The following applies: equivalent of the plasma level. The text has this:
Targeting of the Gag-Tsg101 interaction for inhibition of HIV budding has been an active field over the last fifteen years, mostly focusing on interference with PTAP binding (Tavassoli, A. et al. (2008); Chen, H., et al. (2010); Kim, S. E. et al. (2011); Lu, J. et al. (2014)). Theoretically, a synthetic peptide that mimics the PTAP motif could compete for the PTAP binding pocket of Tsg101 in cells. […]; Liu, F. et al. (2008)). Although high-resolution structures for the highest affinity complexes have not yet been elucidated, docking studies indicate that these PTAP inhibitors bind to the hydrophobic surface of Tsg101 around residue T56 (Kim, S. E. et al. (2011)). […]. […] Indeed, the dose of N16 provided is 40 milligrams. Seven microgram/ml is achieved in human plasma (Hunt, R. H. et al. (2005)), a level that is equivalent to a 20 micromolar concentration of the drug. The lowest concentration that we achieved in tissue culture assays when N16 was provided under the optimal conditions described in the text (c.f FIG. 15) was 25-50 micromolar. The current availability of the F15/N16 compounds in diverse long-acting slow-release formulations is another feature adaptable to further refined development of the F15/N16 compounds that could address issues pertaining to drug regimen adherence. […]

Molecules are shown by their SMILES.

As for `COc1ccc2nc([S@@+]([O-])Cc3ncc(C)c(OC)c3C)[nH]c2c1` [F15, esomeprazole], the “binding in the in vitro binding assay” value on Tsg101 was “comparable binding”. In the case of `COc1ccc2[nH]c([S+]([O-])Cc3ncc(C)c(OC)c3C)nc2n1` (stereo not drawn) [N16, tenatoprazole], in the data set with HIV-1 NL4-3 P7L, the “residual particle release of P7L” value is on record as “blocked”. The “plasma level, equivalent concentration” value in “Plasma level in humans” turned out to be 20 µM.
